Data reported in the supplement of paper PMC10307832.

Legend:
Experiment in all cases: relative viability (nuclei count vs DMSO), 5 days (fraction); higher = more cells survive
Elesclomol = compound: CN(NC(=O)CC(=O)NN(C)C(=S)c1ccccc1)C(=S)c1ccccc1 [Elesclomol]
How it was run: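 Acceptance criteria were a control CV below 25% and at least one doubling per plate. Lung cancer cell lines in 1536-well plates got five library-drug doses (not always all listed) √10 apart by pinning and were left 5 days with no medium change. Viability divides treated-well nuclei by vehicle-well nuclei and is the median across plates. Nuclei were counted by MetaXpress from 4× Hoechst images.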

Elesclomol + Trametinib = compound: CN(NC(=O)CC(=O)NN(C)C(=S)c1ccccc1)C(=S)c1ccccc1 [Elesclomol] + CC(=O)Nc1cccc(-n2c(=O)n(C3CC3)c(=O)c3c(Nc4ccc(I)cc4F)n(C)c(=O)c(C)c32)c1 [Trametinib] (partner 0.02 µM)
How it was run: (§1)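 One day after seeding in 1536-well plates, lung cancer cell lines were dosed by pin tool. Dosing was either single-drug or a fixed anchor-drug dose plus five library-drug doses (not always all listed) in √10 steps. After 5 days, nuclei were stained in one fix-and-stain step and counted on 4× images, and relative viability is the nuclei count of treated wells over that of vehicle wells, given as the median of duplicate plates.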

Elesclomol + Palbociclib = compound: CN(NC(=O)CC(=O)NN(C)C(=S)c1ccccc1)C(=S)c1ccccc1 [Elesclomol] + CC(=O)c1c(C)c2cnc(Nc3ccc(N4CCNCC4)cn3)nc2n(C2CCCC2)c1=O [Palbociclib] (partner 0.5 µM)
How it was run: as §1

Elesclomol + Luminespib = compound: CN(NC(=O)CC(=O)NN(C)C(=S)c1ccccc1)C(=S)c1ccccc1 [Elesclomol] + CCNC(=O)c1noc(-c2cc(C(C)C)c(O)cc2O)c1-c1ccc(CN2CCOCC2)cc1 [Luminespib] (partner 0.01 µM)
How it was run: as §1

Elesclomol + Foretinib = compound: CN(NC(=O)CC(=O)NN(C)C(=S)c1ccccc1)C(=S)c1ccccc1 [Elesclomol] + COc1cc2c(Oc3ccc(NC(=O)C4(C(=O)Nc5ccc(F)cc5)CC4)cc3F)ccnc2cc1OCCCN1CCOCC1 [Foretinib] (partner 0.25 µM)
How it was run: as §1

Elesclomol + OSI-027 = compound: CN(NC(=O)CC(=O)NN(C)C(=S)c1ccccc1)C(=S)c1ccccc1 [Elesclomol] + COc1cccc2cc(-c3nc([C@H]4CC[C@H](C(=O)O)CC4)n4ncnc(N)c34)[nH]c12 [OSI-027] (partner 0.5 µM)
How it was run: as §1

Elesclomol + Tozasertib = compound: CN(NC(=O)CC(=O)NN(C)C(=S)c1ccccc1)C(=S)c1ccccc1 [Elesclomol] + Cc1cc(Nc2cc(N3CCN(C)CC3)nc(Sc3ccc(NC(=O)C4CC4)cc3)n2)n[nH]1 [Tozasertib] (partner 0.1 µM)
How it was run: as §1

Elesclomol + Dasatinib = compound: CN(NC(=O)CC(=O)NN(C)C(=S)c1ccccc1)C(=S)c1ccccc1 [Elesclomol] + Cc1nc(Nc2ncc(C(=O)Nc3c(C)cccc3Cl)s2)cc(N2CCN(CCO)CC2)n1 [Dasatinib] (partner 0.075 µM)
How it was run: as §1

Elesclomol + Phenformin = compound: CN(NC(=O)CC(=O)NN(C)C(=S)c1ccccc1)C(=S)c1ccccc1 [Elesclomol] + N=C(N)NC(=N)NCCc1ccccc1 [Phenformin] (partner 250 µM)
How it was run: as §1

Elesclomol + AZD7762 = compound: CN(NC(=O)CC(=O)NN(C)C(=S)c1ccccc1)C(=S)c1ccccc1 [Elesclomol] + NC(=O)Nc1cc(-c2cccc(F)c2)sc1C(=O)N[C@H]1CCCNC1 [AZD7762] (partner 0.2 µM)
How it was run: as §1

Elesclomol + Pemetrexed = compound: CN(NC(=O)CC(=O)NN(C)C(=S)c1ccccc1)C(=S)c1ccccc1 [Elesclomol] + Nc1nc2[nH]cc(CCc3ccc(C(=O)N[C@@H](CCC(=O)O)C(=O)O)cc3)c2c(=O)[nH]1 [Pemetrexed] (partner 0.2 µM)
How it was run: as §1

Elesclomol + Decitabine = compound: CN(NC(=O)CC(=O)NN(C)C(=S)c1ccccc1)C(=S)c1ccccc1 [Elesclomol] + Nc1ncn([C@H]2C[C@H](O)[C@@H](CO)O2)c(=O)n1 [Decitabine] (partner 2 µM)
How it was run: as §1

Elesclomol + Vorinostat = compound: CN(NC(=O)CC(=O)NN(C)C(=S)c1ccccc1)C(=S)c1ccccc1 [Elesclomol] + O=C(CCCCCCC(=O)Nc1ccccc1)NO [Vorinostat] (partner 1 µM)
How it was run: as §1

Elesclomol + Olaparib = compound: CN(NC(=O)CC(=O)NN(C)C(=S)c1ccccc1)C(=S)c1ccccc1 [Elesclomol] + O=C(c1cc(Cc2n[nH]c(=O)c3ccccc23)ccc1F)N1CCN(C(=O)C2CC2)CC1 [Olaparib] (partner 8 µM)
How it was run: as §1

## SW 900
Elesclomol; 0.003162 µM
  relative viability: 0.871
Elesclomol; 0.01 µM
  relative viability: 0.701
Elesclomol; 0.03162 µM
  relative viability: 0.251
Elesclomol; 0.1 µM
  relative viability: 0.0829
Elesclomol + Trametinib; first compound 0.003162 µM
  relative viability: 0.902
Elesclomol + Trametinib; first compound 0.01 µM
  relative viability: 0.399
Elesclomol + Trametinib; first compound 0.03162 µM
  relative viability: 0.197
Elesclomol + Trametinib; first compound 0.1 µM
  relative viability: 0.14
Elesclomol + Palbociclib; first compound 0.003162 µM
  relative viability: 0.531
Elesclomol + Palbociclib; first compound 0.01 µM
  relative viability: 0.453
Elesclomol + Palbociclib; first compound 0.03162 µM
  relative viability: 0.168
Elesclomol + Palbociclib; first compound 0.1 µM
  relative viability: 0.0979
Elesclomol + Luminespib; first compound 0.003162 µM
  relative viability: 0.173
Elesclomol + Luminespib; first compound 0.01 µM
  relative viability: 0.132
Elesclomol + Luminespib; first compound 0.03162 µM
  relative viability: 0.17
Elesclomol + Luminespib; first compound 0.1 µM
  relative viability: 0.139
Elesclomol + Foretinib; first compound 0.003162 µM
  relative viability: 0.87
Elesclomol + Foretinib; first compound 0.01 µM
  relative viability: 0.91
Elesclomol + Foretinib; first compound 0.03162 µM
  relative viability: 0.127
Elesclomol + Foretinib; first compound 0.1 µM
  relative viability: 0.0681
Elesclomol + OSI-027; first compound 0.003162 µM
  relative viability: 0.615
Elesclomol + OSI-027; first compound 0.01 µM
  relative viability: 0.287
Elesclomol + OSI-027; first compound 0.03162 µM
  relative viability: 0.121
Elesclomol + OSI-027; first compound 0.1 µM
  relative viability: 0.0545
Elesclomol + Tozasertib; first compound 0.003162 µM
  relative viability: 0.534
Elesclomol + Tozasertib; first compound 0.01 µM
  relative viability: 0.3
Elesclomol + Tozasertib; first compound 0.03162 µM
  relative viability: 0.121
Elesclomol + Tozasertib; first compound 0.1 µM
  relative viability: 0.146
Elesclomol + Dasatinib; first compound 0.003162 µM
  relative viability: 0.626
Elesclomol + Dasatinib; first compound 0.01 µM
  relative viability: 0.41
Elesclomol + Dasatinib; first compound 0.03162 µM
  relative viability: 0.144
Elesclomol + Dasatinib; first compound 0.1 µM
  relative viability: 0.196
Elesclomol + Phenformin; first compound 0.003162 µM
  relative viability: 0.521
Elesclomol + Phenformin; first compound 0.01 µM
  relative viability: 0.337
Elesclomol + Phenformin; first compound 0.03162 µM
  relative viability: 0.178
Elesclomol + Phenformin; first compound 0.1 µM
  relative viability: 0.0792
Elesclomol + AZD7762; first compound 0.003162 µM
  relative viability: 0.709
Elesclomol + AZD7762; first compound 0.01 µM
  relative viability: 0.54
Elesclomol + AZD7762; first compound 0.03162 µM
  relative viability: 0.272
Elesclomol + AZD7762; first compound 0.1 µM
  relative viability: 0.103
Elesclomol + Pemetrexed; first compound 0.003162 µM
  relative viability: 0.495
Elesclomol + Pemetrexed; first compound 0.01 µM
  relative viability: 0.453
Elesclomol + Pemetrexed; first compound 0.03162 µM
  relative viability: 0.289
Elesclomol + Pemetrexed; first compound 0.1 µM
  relative viability: 0.0977
Elesclomol + Decitabine; first compound 0.003162 µM
  relative viability: 0.404
Elesclomol + Decitabine; first compound 0.01 µM
  relative viability: 0.358
Elesclomol + Decitabine; first compound 0.03162 µM
  relative viability: 0.204
Elesclomol + Decitabine; first compound 0.1 µM
  relative viability: 0.13
Elesclomol + Vorinostat; first compound 0.003162 µM
  relative viability: 0.522
Elesclomol + Vorinostat; first compound 0.01 µM
  relative viability: 0.345
Elesclomol + Vorinostat; first compound 0.03162 µM
  relative viability: 0.234
Elesclomol + Vorinostat; first compound 0.1 µM
  relative viability: 0.111
Elesclomol + Olaparib; first compound 0.003162 µM
  relative viability: 0.774
Elesclomol + Olaparib; first compound 0.01 µM
  relative viability: 0.596
Elesclomol + Olaparib; first compound 0.03162 µM
  relative viability: 0.264
Elesclomol + Olaparib; first compound 0.1 µM
  relative viability: 0.0917
